Test results reported in patent US4690945A, “Process for the preparation of 5'-substituted 2-(3'-thienyl)propionic acids” (Laboratorios Madaus Cerafarm, S.A., priority 1981, dated 1987).
Entries after “also recorded” stand apart in the source; their conditions may differ.

Key:
[1] = acute toxicity (DL50 / LD50); conditions: mouse, in vivo
Description: Most of the compounds described in these examples have been tested pharmacologically and toxicologically (DL50) according to the methods indicated on pages 5 to 7, and the results are summarized in the appended table.

[2] = tested on: rat leg edema induced by carrageenin; assay: carrageenin edema procedure on rats' legs (Δ volume), anti-inflammatory action; type: in vivo; set-up: key to Anti-inflammatory action, Δ volume: +++: Intense action; ++: Medium action; +: Minimal action; ±: Doubtful action; -: Negative action; --: Not tested; conditions: per os, 3 hours; for Anti-inflammatory action, Δ volume: class symbol; for ED50: po
Protocol: (§1) The pharmacological tests were performed on rats and mice, using the carrageenin edema procedure on rats' legs and backs by the test for anti-inflammatory action and the acetic acid contorsion and hot plate tests on mice for the purpose of testing analgesic action.
(§2) In the anti-inflammatory action test, the test was performed on rat leg edema induced by carrageenin, administering the compounds per os and measuring the volume of the edema 3 hours later by plethysmography.
(§3) The results obtained in both tests are expressed as a percentage of inhibition of the edema or abscess, and were better than 30% in comparison with a control group.

[3] = overall pharmacological (anti-inflammatory and analgesic) action, tests on rats and mice; type: in vivo; conditions: for anti-inflammatory activity (in words): in mammals; for pharmacological action (in words): analgesic and anti-inflammatory
Protocol: as §1, §2
(§4) The anti-inflammatory action of these compounds was also examined by the carrageenin abscess test on rats' backs, the abscess being weighed 24 hours after administration of the product.
(§5) For the examination of analgesic action, the acetic acid and hot plate tests were used.
(§6) In the acetic acid test, the number of contorsions (stretching) is determined, which are produced for 30 minutes following intraperitoneal administration of dilute acetic acid. Analgesic action is also tested by the hot plate test in which the pain stimulus is thermal, the time being measured in seconds which the animal takes to respond to the stimulus by licking its feet.

[4] = tested on: carrageenin abscess on rats' backs; assay: carrageenin abscess test on rats' backs (Δ abscess), anti-inflammatory action; type: in vivo; set-up: key to Anti-inflammatory action, Δ abscess: +++: Intense action; ++: Medium action; +: Minimal action; ±: Doubtful action; -: Negative action; --: Not tested; conditions: rat back carrageenin abscess, weighed 24 hours after administration; for Anti-inflammatory action, Δ abscess: class symbol
Protocol: as §1, §4, §3

[5] = tested on: thermal pain stimulus (hot plate); assay: hot plate test on mice, analgesic action; type: in vivo; set-up: key: +++: Intense action; ++: Medium action; +: Minimal action; ±: Doubtful action; -: Negative action; --: Not tested; conditions: class symbol
Protocol: as §1, §5, §6

[6] = tested on: contorsions (stretching) induced by intraperitoneal dilute acetic acid; assay: acetic acid contorsion test on mice, analgesic action; type: in vivo; set-up: key to Analgesic action, Acetic acid: +++: Intense action; ++: Medium action; +: Minimal action; ±: Doubtful action; -: Negative action; --: Not tested; conditions: for Analgesic action, Acetic acid / ED50: mice, contorsions during 30 minutes after i.p. acetic acid; for Analgesic action, Acetic acid: class symbol; for ED50: Mus musculus, ip, 0.5 h; for analgesic action (in words): acetic acid and hot plate tests
Protocol: as §6, with “The pharmacological tests were performed on rats and mice, using the carrageenin edema procedure on rats' legs and backs by the test for anti-inflammatory action and the acetic acid contorsion and hot plate tests on mice for the purpose of testing analgesic action. For the examination of analgesic action, the acetic acid and hot plate tests were used. […] In” for “In”

Structure (SMILES)	LD50 [1] [mg/kg]	Anti-inflammatory action, Δ volume [2]	anti-inflammatory activity (in words) [3]	Anti-inflammatory action, Δ abscess [4]	Analgesic action, Plate [5]	pharmacological action (in words) [3]	Analgesic action, Acetic acid [6]	ED50 [4] [mg/kg]	anti-inflammatory activity (in words) ([3]; listed as I)	ED50 [6] [mg/kg]	analgesic action (in words) [6]	ED50 [2] [mg/kg]	anti-inflammatory activity (in words) ([3]; listed as II)
CC(C(=O)O)c1csc(Cc2ccccc2)c1 (stereo not shown) [LMC-VII, 2-(5'-benzyl-3'-thienyl)propionic acid]	~1500	+											
CC(C(=O)O)c1csc(C(=O)c2ccccc2)c1 (stereo not shown) [A]			potent anti-inflammatory activity										
CC(C)C(=O)c1cc(C(C)C(=O)O)cs1 (stereo not shown) [LMC-V, 2-(5'-isobutyryl-3'-thienyl)propionic acid]	~1500	++		+	+								
Cc1ccc(C(=O)c2cc(C(C)C(=O)O)cs2)cc1 (stereo not shown) [LMC-IV]	~1200	+++		++	++	best representative of this action	++						
CC(C(=O)O)c1csc(C(=O)c2ccc(Cl)cc2Cl)c1 (stereo not shown) [LMC-III, 2-(5'-(2",4"-dichloro)benzoyl-3'-thienyl)propionic acid]	~1000	±		+	+		+						
CC(C(=O)O)c1csc(C(=O)c2ccccc2)c1 (stereo not shown) [LMC-I, 2-(5'-benzoyl-3'-thienyl)propionic acid]	~400	+++		+++		notable analgesic and anti-inflammatory action; also recorded: most active compounds	+++	12.5	anti-inflammatory activity in mammals	50	have an analgesic action	7.3	
CC(C(=O)O)c1csc(C(=O)c2ccc(Cl)cc2)c1 (stereo not shown) [LMC-II, 2-(5'-(4"-chloro)benzoyl-3'-thienyl)propionic acid]	~1200	+++		+++		notable pharmacological action, though it is inferior to that of compound I; also recorded: most active compounds	+++	23.5		69.6	have an analgesic action	17.3	anti-inflammatory activity in mammals
CC(C(=O)O)c1csc(C(=O)c2ccc(Cl)cc2)c1 (stereo not shown) [B]			potent anti-inflammatory activity										
CC(C)Cc1cc(C(C)C(=O)O)cs1 (stereo not shown) [LMC-VI]	> 1000	+		+	+								
